Ends that are not written are not given here.
Biological target: T1, ENaC (Homo sapiens, UniProt P37088+P51168+P51170)
T1 construct: measured the transepithelial voltage under thin film conditions in human bronchial epithelial cultures; endogenous in cells; host or cells: primary human bronchial epithelial cultures (normal or CF donors)
T1 sequence (P37088 1-669): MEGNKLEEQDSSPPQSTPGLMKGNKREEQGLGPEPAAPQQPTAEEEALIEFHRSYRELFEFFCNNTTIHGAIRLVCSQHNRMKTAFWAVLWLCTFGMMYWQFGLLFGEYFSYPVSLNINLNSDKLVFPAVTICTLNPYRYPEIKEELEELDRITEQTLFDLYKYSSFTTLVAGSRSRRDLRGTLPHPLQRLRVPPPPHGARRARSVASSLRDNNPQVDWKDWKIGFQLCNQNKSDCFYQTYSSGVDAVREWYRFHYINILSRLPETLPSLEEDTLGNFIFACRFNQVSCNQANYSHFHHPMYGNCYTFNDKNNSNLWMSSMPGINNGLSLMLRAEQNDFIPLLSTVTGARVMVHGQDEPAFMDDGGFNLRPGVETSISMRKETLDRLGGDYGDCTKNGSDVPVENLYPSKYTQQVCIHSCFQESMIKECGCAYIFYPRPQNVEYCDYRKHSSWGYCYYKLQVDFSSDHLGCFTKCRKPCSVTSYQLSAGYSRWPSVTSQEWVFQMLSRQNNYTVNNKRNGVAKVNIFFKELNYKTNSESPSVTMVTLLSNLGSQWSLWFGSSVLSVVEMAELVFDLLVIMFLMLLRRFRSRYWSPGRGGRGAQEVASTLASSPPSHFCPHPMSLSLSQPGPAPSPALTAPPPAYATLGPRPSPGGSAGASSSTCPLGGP
T1 sequence (P51168 1-640): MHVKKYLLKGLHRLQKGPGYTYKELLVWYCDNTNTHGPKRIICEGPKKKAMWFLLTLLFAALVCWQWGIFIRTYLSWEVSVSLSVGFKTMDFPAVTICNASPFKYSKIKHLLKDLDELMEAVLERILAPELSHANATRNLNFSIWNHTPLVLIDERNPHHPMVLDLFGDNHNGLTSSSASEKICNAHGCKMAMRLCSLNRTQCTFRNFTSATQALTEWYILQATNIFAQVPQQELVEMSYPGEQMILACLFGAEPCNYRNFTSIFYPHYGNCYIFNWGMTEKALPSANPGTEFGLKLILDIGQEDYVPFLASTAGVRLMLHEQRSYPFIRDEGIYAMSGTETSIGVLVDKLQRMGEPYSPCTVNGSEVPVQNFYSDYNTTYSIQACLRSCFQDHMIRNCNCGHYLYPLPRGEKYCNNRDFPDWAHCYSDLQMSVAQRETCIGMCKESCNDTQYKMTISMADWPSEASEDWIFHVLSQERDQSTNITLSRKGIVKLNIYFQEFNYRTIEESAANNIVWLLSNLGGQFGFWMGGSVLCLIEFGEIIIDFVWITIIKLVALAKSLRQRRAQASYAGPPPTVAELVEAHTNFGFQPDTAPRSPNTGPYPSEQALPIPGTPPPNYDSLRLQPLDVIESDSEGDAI
T1 sequence (P51170 1-649): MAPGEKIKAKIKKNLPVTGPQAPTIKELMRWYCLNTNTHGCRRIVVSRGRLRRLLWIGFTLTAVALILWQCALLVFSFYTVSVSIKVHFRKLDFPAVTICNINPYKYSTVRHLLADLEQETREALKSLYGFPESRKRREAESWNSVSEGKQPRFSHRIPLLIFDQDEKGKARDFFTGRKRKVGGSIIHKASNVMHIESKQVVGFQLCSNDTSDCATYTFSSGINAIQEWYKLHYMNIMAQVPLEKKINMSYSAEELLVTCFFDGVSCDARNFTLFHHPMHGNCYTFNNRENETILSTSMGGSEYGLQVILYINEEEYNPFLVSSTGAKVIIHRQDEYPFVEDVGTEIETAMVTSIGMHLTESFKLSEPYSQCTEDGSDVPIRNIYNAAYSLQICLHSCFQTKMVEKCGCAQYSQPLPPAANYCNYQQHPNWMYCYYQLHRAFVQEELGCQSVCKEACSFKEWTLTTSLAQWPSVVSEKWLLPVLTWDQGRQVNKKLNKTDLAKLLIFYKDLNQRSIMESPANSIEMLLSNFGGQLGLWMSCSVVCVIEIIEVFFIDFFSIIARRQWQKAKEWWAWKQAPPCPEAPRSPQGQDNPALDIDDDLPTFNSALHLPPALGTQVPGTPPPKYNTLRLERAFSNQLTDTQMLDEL
Test: Thin film amiloride-sensitive transepithelial PD in CF HBECs
Assay type: cell-based
Details: 10 μM S18, over 24 h
Protocol: A, airway surface liquid (ASL) height with time in CF HBECs measured by XZ confocal microscopy after apical addition of 20 μl Ringer with rhodamine-dextran. ▪=control; ▴=10 μM S18. Both n=6. B, Thin film amiloride-sensitive transepithelial PD measured in the same cultures as A, with microelectrodes positioned in the ASL and serosal bath. Open bars, control, closed bars, S18, n=6. C, Dose response to S18 vs. ASL height in CF primary human bronchial epithelial cultures (HBECs) measured 8 h after S18 addition. D, Bar graph of 8 h ASL height in CF HBECs. Control (open bars), S18 black bars, aprotinin, gray bars. NE, neutrophil elastase. ANS, activated neutrophil supernatant. All n=6. *p<0.05 different to vehicle. †p<0.05 different to aprotinin.
A single-barreled potential difference-sensing electrode was placed in the airway surface liquid by micromanipulator and used in conjunction with a macroelectrode in the serosal solution to measure transepithelial voltage using a voltmeter (World Precision Instruments). […] Transepithelial resistance was routinely measured using the EVOM system (WPI) as previously described (Tarran et al., J. Gen. Physiol. 127:591 (2006)).

GGLPVPLDQTLPLNVNPA [S18]
amiloride-sensitive PD: reduced the amiloride-sensitive PD

From patent US9127040B2, “Regulation of sodium channels by PLUNC proteins” (The University of North Carolina at Chapel Hill, priority 2011, dated 2015)
